Legend:
in vitro = details: human
[1] = test system: SARS CoV-2 (USA_WA1/2020); assay: microbe, parasite or virus in culture; type: cell-based; details: Severe acute respiratory syndrome coronavirus 2, Vero C1008; SARS-CoV-2 CPE assay, reference compounds
hCoV-229E = hCoV-229E CPE assay in MRC5 cells; type: cell-based
Procedure: The method of this CPE assay is as follows: In 96-well plates, MRC5 cells were seeded at an appropriate density and cultured at 37° C. and 5% CO2 overnight. […] Then medium in each well was replenished with medium containing serially diluted samples and virus. […] Cytotoxicity of the compounds was assessed under the same conditions, but without virus infection, in parallel. Cell viability was measured by CellTiter Glo following the manufacturer's manual. IC50 and CC50 values were calculated with GraphPad Prism software.

For `CCC(CC)COC(=O)[C@H](C)N[P@](=O)(OC[C@H]1O[C@@](C#N)(c2ccc3c(N)ncnn23)[C@H](O)[C@@H]1O)Oc1ccccc1` [Remdesivir], the CC50 (in vitro) was 26.7 µM, the IC50 [1] was 3.9 µM and the “Selectivity Index (CC50/IC50) (Based upon nM)” value (hCoV-229E; HCoV-229E CPE assay) was 1508.76. It also gave an IC50 (hCoV-229E; Human coronavirus 229E, MRC5, 72 h, read-out: Antiviral IC50) of 0.0177 µM.

Source: patent US20240018207A1, “INTERFERON TAU FC-FUSION PROTEINS AND METHODS FOR TREATING CORONAVIRUS INFECTIONS” (Southlake Pharmaceuticals, Inc., priority 2020, published 2024)
